Common to all, as to format: cell-based
In one experiment the test system is NCI-H23. Description: NCI panel SRB growth inhibition. The following applies: Homo sapiens, NCI-H23, Non-Small Cell Lung, 48 h. The procedure: (§1) The operation of this unique screen utilizes […] different human tumor cell lines, representing leukemia, melanoma and cancers of the lung, colon, brain, ovary, breast, prostate, and kidney.
(§2) Culture conditions and plating: The human tumor cell lines of the cancer-screening panel were grown in RPMI 1640 medium containing 5% fetal bovine serum and 2 mM L-glutamine. For a typical screening experiment, cells were inoculated into 96 well microtiter plates in 100 μL at plating densities ranging from 5,000 to 40,000 cells/well depending on the doubling time of individual cell lines (Table 5). After cell inoculation, the microtiter plates were incubated at 37° C., 5% CO2, 95% air and 100% relative humidity for 24 h prior to addition of experimental drugs. After 24 h, two plates of each cell line were fixed in situ with TCA, to represent a measurement of the cell population for each cell line at the time of drug addition (Tz). Evaluation of inhibitory activity on cell proliferation: ECO-04601 was provided as a lyophilized powder with an estimated purity of 90+%. The compound was stored at −20° C. until day of use. ECO-04601 was solubilized in dimethyl sulfoxide at 400-fold the desired final maximum test concentration. At the time of drug addition, an aliquot of frozen concentrate was thawed and diluted to twice the desired final maximum test concentration with complete medium containing 50 μg/mL gentamicin. Additional four, 10-fold or Y2 log serial dilutions were made to provide a total of five drug concentrations plus control. Aliquots of 100 μl of these different drug dilutions were added to the appropriate microtiter wells already containing 100 μl of medium, resulting in the required final drug concentrations (8.0×10^−5 M to 8.0×10^−9 M).
(§3) Following drug addition, the plates were incubated for an additional 48 h at 37° C., 5% CO2, 95% air, and 100% relative humidity. For adherent cells, the assay was terminated by the addition of cold TCA. Cells were fixed in situ by the gentle addition of 50 μl of cold 50% (w/v) TCA (final concentration, 10% TCA) and incubated for 60 minutes at 4° C. Supernatants were discarded, and the plates were washed five times with tap water and air-dried. Sulforhodamine B (SRB) solution (100 μl) at 0.4% (w/v) in 1% acetic acid was added to each well, and plates were incubated for 10 minutes at room temperature. After staining, unbound dye was removed by washing five times with 1% acetic acid and the plates were air-dried. Bound stain was subsequently solubilized with 10 mM trizma base, and the absorbance was read on an automated plate reader at a wavelength of 515 nm. For suspension cells, the methodology was the same except that the assay was terminated by fixing settled cells at the bottom of the wells by gently adding 50 μl of 80% TCA (final concentration, 16% TCA).
(§4) The growth inhibitory activity of ECO-04601 was measured by NCI utilizing the GI50 value, rather than the classical IC50 value.

The test system of another experiment is SF-295. The experiment in a line: NCI panel SRB growth inhibition. The following applies: Homo sapiens, SF-295, CNS, 48 h. The method, then:
as §1, §2, §3, §4

In another experiment the test system is BT-549. The experiment in a line: NCI panel SRB growth inhibition. The following applies: Homo sapiens, BT-549, Breast, 48 h. The method, then:
as §1, §2, §3, §4

Another experiment relates to T-47D. The experiment in a line: NCI panel SRB growth inhibition. The following applies: Homo sapiens, T47D, Breast, 48 h. The procedure:
as §1, §2, §3, §4

A further experiment concerns HT29. The experiment in a line: NCI panel SRB growth inhibition. The following applies: Homo sapiens, HT-29, HT29, Colon, 48 h. The method, then: as §1, §2, §3, §4
Another experiment relates to A498. The experiment in a line: NCI panel SRB growth inhibition. The following applies: Homo sapiens, A498, Renal, 48 h. The method, then:
as §1, §2, §3, §4

In a further experiment the test system is HCT-15. The experiment in a line: NCI panel SRB growth inhibition. The following applies: Homo sapiens, HCT-15, Colon, 48 h. The procedure:
as §1, §2, §3, §4

In the next experiment the test system is B16 (F10). Description: MTT cell proliferation, tumor cell lines. The following applies: Mus musculus, Melanoma, 96 hrs. The method, then:
(§5) Culture conditions: The cell lines listed in Table 4 were used to characterize the cytotoxicity of ECO-04601 against human and animal tumor cell lines. […] Cells were passaged twice to three times per week. Viability was examined by staining with 0.25% trypan blue and only flasks where cell viability was >95% were used for this study. Cell lines amplification and plating: Tumor cells were seeded (1–3×10^3 cells per 100 μL) in 96-wells flat bottom microtiter plates and incubated at 37° C. and 5% CO2 for 16 hrs before treatment in drug-free medium supplemented with 10% serum. Evaluation of inhibitory activity on cell proliferation: Cells were incubated for 96 hrs with 6 log10-fold concentrations of the test substance starting at 10 μg/ml (20 μM). The test substance stock solution (5 mg/mL) was initially diluted at […] in medium supplemented with serum. Other concentrations were then obtained from 1/10 fold successive dilutions in the same supplemented medium. Cell survival was evaluated 96 h later by replacing the culture media with 150 μL fresh medium containing 10 mM 4-(2-hydroxyethyl)-1-piperazineethanesulfonic acid buffer, pH 7.4. Next, 50 μL of 2.5 mg/mL of 3-(4,5-dimethylthiazo-2-yl)-2,5-diphenyltetrazolium bromide (MTT) in phosphate buffer solution, pH 7.4, was added. After 3–4 h of incubation at 37° C., the medium and soluble MTT was removed, and 200 μL of dimethylsulfoxide was added to dissolve the precipitate of reduced MTT followed by addition of 25 μL glycine buffer (0.1 M glycine plus 0.1 M NaCl, pH 10.5). The absorbance was determined at 570 nm with a microplate reader.

For another experiment, the system named is MCF-7. The experiment in a line: MTT cell proliferation, tumor cell lines. The following applies: Homo sapiens, MCF7, MCF-7, Breast adenocarcinoma, 96 hrs. The procedure:
as §5

The subject of the next experiment is Panc 10.05. The experiment in a line: MTT cell proliferation, tumor cell lines. The following applies: Homo sapiens, Panc1005, Panc 10.05, Pancreatic carcinoma, 96 hrs. The method, then: as §5
In a further experiment the test system is I83. The experiment in a line: MTT cell proliferation, tumor cell lines. The following applies: Homo sapiens, I83, Leukemia, 96 hrs. The procedure: as §5
A further experiment has as its system K562. Description: MTT cell proliferation, tumor cell lines. The following applies: Homo sapiens, K562, Leukemia myelogeneous, 96 hrs. The procedure: as §5
For the next experiment, the system named is SK-MEL 28. The experiment in a line: MTT cell proliferation, tumor cell lines. The following applies: Homo sapiens, SK-MEL 28, Melanoma, 96 hrs. The method, then:
as §5

Another experiment deals with Panc 96. Description: MTT cell proliferation, tumor cell lines. The following applies: Homo sapiens, Panc 96, Pancreatic carcinoma, 96 hrs. The method, then: as §5
For the next experiment, the system named is P388. The experiment in a line: MTT cell proliferation, tumor cell lines. The following applies: Mus musculus, P388, Leukemia, 96 hrs. The procedure: as §5
The next experiment deals with SK-MEL 28^VEGF. Description: MTT cell proliferation, tumor cell lines. The following applies: Homo sapiens, Melanoma (expressing VEGF), 96 hrs. The method, then: as §5
The test system of a further experiment is SK-MEL-1. The experiment in a line: MTT cell proliferation, tumor cell lines. The following applies: Homo sapiens, SK-MEL-1, Melanoma, 96 hrs. The procedure:
as §5

The structures appear in SMILES notation. pIC50: −log10 of the molar value.

For orientation: GI50 means the concentration that inhibits growth by half. Higher therefore signals less potent growth inhibition. The term pIC50 denotes the IC50 on a negative log10 scale, so that one unit is a factor of ten. A low value points to a high IC50. Regarding `CC(C)=CCC/C(C)=C/CC/C(C)=C/CN1C(=O)c2cccc(O)c2Nc2c(O)cc(O)cc21` [ECO-04601, 10-farnesyl-4,6,8-trihydroxy-dibenzodiazepin-11-one], the GI50 came to 2020 nM in the experiment with NCI-H23; 12.7 µM in the experiment with SF-295; 110 nM in the experiment on BT-549; 770 nM with T-47D; 20.7 µM in the experiment on HT29; 22.3 µM in the experiment on A498. Further, the GI50 with HCT-15 amounted to 9.73 µM. The pIC50 with B16 (F10) is 4.94; in the experiment on MCF-7, 5.01; in the experiment with Panc 10.05 it was 4.85; in the experiment on I83 it was 5.57; with K562 it was 5.07; in the experiment on SK-MEL 28 it was 4.85. The pIC50 with Panc 96 was 4.90; in the experiment on P388, 4.96; in the experiment on SK-MEL 28^VEGF, 4.84; in the experiment on SK-MEL-1, 4.85.

(Values after US7101872B2, “Farnesyl dibenzodiazepinone, and processes for its production” (Ecopia BioSciences, Inc., priority 2003, dated 2006).)
